Entries after “also recorded” stand apart in the source; their conditions may differ.
Tested on: rat hippocampal slices
Test: Long-term potentiation (LTP) in rat hippocampal slices
Format: cell-based
Method: FIGS. 2A-2B. Effects of TP70 on rat hippocampal LTP. FIG. 2A. Top panels show superimposed field excitatory post-synaptic potentials (EPSPs) taken from baseline and 45 min following high frequency stimulation (HFS, four 1-s trains of 100 pulses of 0.2 ms delivered at 100 Hz, inter-train interval of 20 s) of the Schaffer collateral-CA1 synapses. FIG. 2B. […] In Control HFS induced LTP. AβO blocked LTP. TP70 (1 μM) restored LTP in the presence of AβO. TP70 alone enhanced LTP.
We further investigated effects of TP70 on basal neurotransmission and synaptic plasticity, for example long-term potentiation (LTP) in rat hippocampal slices as previously described (Villeda, et al., Nature, 2011, 477:90-94; Xie, et al., Pflugers Arch, 1994, 427:481-486).

## Cc1cc2c(c(=O)o1)C=C1CCC(C(C)CNCc3ccc(O)cc3)CC1O2 (stereo not shown) [TP70]
  concentration required for enhancing synaptic activity and LTP restoration: 0.1 to 3 µM
1 μM, perfused 20 min prior to co-application of AβO
  LTP in the presence of AβO: restored LTP; also recorded: restored LTP to the non-AβO-treated level
Compound alone
  basal synaptic activity: without affecting basal synaptic activity
Without AβO
  magnitude of LTP, compound alone: significantly enhanced the magnitude of LTP

From US9802962B2, “Tricyclic pyrone compounds reduce amyloid beta aggregates” (priority 2013, dated 2017)
